Measurements reported in patent publication US10112944B2, “Heterocyclic compounds useful as inhibitors of TNF” (BRISTOL-MYERS SQUIBB COMPANY, priority 2015, dated 2018).
pIC50: −log10 of the molar value.

Biological target: TNFα (Homo sapiens (Human), UniProt P01375)
Experiment: TNF induced HEK-Blue assay
Type: cell-based
Conditions: HEK-Blue-CD40L cells, TNFα 0.5 ng/ml, NF-κB-driven secreted alkaline phosphatase reporter, 18 h
Experimental: TNF or CD40L-Induced HEK-Blue Assay
Test compounds serially diluted in DMSO were plated in an assay plate (Labcyte, Cat. #LP-0200) at final concentrations ranging from 0.004 μM to 25 μM. TNFα (final concentration 0.5 ng/ml) or CD40L (final concentration 30 ng/ml) in assay buffer [DMEM, 4.5 g/l glucose (Gibco, Cat. 21063-029), 10% FBS (Sigma, F4135), 1% Penicillin-Streptomycin (Gibco, Cat. 15140-122), 1% Anti-Anti (Gibco, Cat. 15240-112) and 2 mM L-glutamine (Gibco, Cat. 25030-081)] was then added to the assay plate. After a 30 minute pre-incubation at 37° C. and 5% CO2, HEK-Blue-CD40L cells (InvivoGen, Cat. Code hkb-cd40) containing a NF-κB-driven secreted alkaline phosphatase reporter gene were seeded into the assay plate at a density of 20,000 cells per well. This plate was then incubated for 18 h at 37° C. and 5% CO2. Secreted alkaline phosphatase expression was measured using QUANTI-Blue (InvivoGen, Cat. Code rep-qbl) according to manufacturer's specifications and the assay plate was read on a PerkinElmer Envision at 620 nm.
Inhibition data for the test compound over a range of concentrations was plotted as percentage inhibition of the test compound (100%=maximum inhibition). IC50 values were determined after correcting for background [(sample read−mean of low control)/(mean of high control−mean of low control)] where by the low control is DMSO without stimulation and high control is DMSO with stimulation. The IC50 is defined as the concentration of test compound which produces 50% inhibition and was quantified using the 4 parameter logistic equation to fit the data.

Chain of TNFα (P01375 77-233): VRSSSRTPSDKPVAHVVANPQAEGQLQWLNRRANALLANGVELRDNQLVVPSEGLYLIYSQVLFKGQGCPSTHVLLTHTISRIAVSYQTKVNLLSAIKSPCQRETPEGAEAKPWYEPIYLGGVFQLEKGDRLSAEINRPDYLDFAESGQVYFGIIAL

SMILES | pIC50
Cc1cc2nc3c(n2cc1-c1cnn(C)c1)N(c1ccccc1OC(F)F)CCC3 [Example 4, 1-(2-(Difluoromethoxy)phenyl)-7-methyl-8-(1-methyl-1H-pyrazol-4-yl)-1,2,3,4-tetrahydroimidazo[1,2-a:5,4-b′]dipyridine] | 5.00 to 6.00
COc1ccc(-c2ccc3nc4c(n3c2)N(c2cc(C)ccc2C)CCC4)cn1 [Example 5, 1-(2,5-Dimethylphenyl)-8-(6-methoxypyridin-3-yl)-1,2,3,4-tetrahydroimidazo [1,2-a:5,4-b′]dipyridine] | > 6.00
COc1ccc(-c2ccc3nc4c(n3c2)N(c2ccccc2OC(F)F)CCC4)cn1 [Example 6, 1-(2-(Difluoromethoxy)phenyl)-8-(6-methoxypyridin-3-yl)-1,2,3,4-tetrahydroimidazo[1,2-a:5,4-b′]dipyridine] | > 6.00
COc1ccc(-c2ccc3nc4c(n3c2)N(c2ccccc2OC(F)(F)F)CCC4)cn1 [Example 10, 8-(6-Methoxypyridin-3-yl)-1-(2-(trifluoromethoxy)phenyl)-1,2,3,4-tetrahydroimidazo[1,2-a:5,4-b′]dipyridine] | > 6.00
COc1ccc(-c2ccc3nc4c(n3c2)N(c2cc(C(F)(F)F)ccc2C)CCC4)cn1 [Example 11, 8-(6-Methoxypyridin-3-yl)-1-(2-methyl-5-(trifluoromethyl)phenyl)-1,2,3,4-tetrahydroimidazo[1,2-a:5,4-b′]dipyridine] | 5.00 to 6.00
Cc1ccc(C)c(N2CCCc3nc4ccc(-c5cnn(C)c5)cn4c32)c1 [Example 12, 1-(2,5-Dimethylphenyl)-8-(1-methyl-1H-pyrazol-4-yl)-1,2,3,4-tetrahydroimidazo [1,2-a:5,4-b′]dipyridine] | > 6.00
Cn1cc(-c2ccc3nc4c(n3c2)N(c2ccccc2OC(F)F)CCC4)cn1 [Example 13, 1-(2-(Difluoromethoxy)phenyl)-8-(1-methyl-1H-pyrazol-4-yl)-1,2,3,4-tetrahydroimidazo[1,2-a:5,4-b′]dipyridine] | > 6.00
Cc1ccc(C)c(N2CCCc3nc4ccc(-c5cnc(N6CCOCC6)nc5)cn4c32)c1 [Example 14, 4-(5-(1-(2,5-Dimethylphenyl)-1,2,3,4-tetrahydroimidazo[1,2-a:5,4-b′]dipyridin-8-yl)pyrimidin-2-yl)morpholine] | > 6.00
COc1ccc(-c2ccc3nc4c(n3c2)N(c2cc(C)ccc2OC(F)F)CCC4)cn1 [Example 20, 1-(2-(Difluoromethoxy)-5-methylphenyl)-8-(6-methoxypyridin-3-yl)-1,2,3,4-tetrahydroimidazo[1,2-a:5,4-b′]dipyridine] | > 6.00
COc1ccc(-c2cn3c4c(nc3cc2Cl)CCCN4c2ccccc2OC(F)F)cn1 [Example 22, 7-Chloro-1-(2-(difluoromethoxy)phenyl)-8-(6-methoxypyridin-3-yl)-1,2,3,4-tetrahydroimidazo[1,2-a:5,4-b′]dipyridine] | 5.00 to 6.00
COc1ccc(-c2cn3c4c(nc3cc2Cl)CCCN4c2cc(C)ccc2C)cn1 [Example 23, 7-Chloro-1-(2,5-dimethylphenyl)-8-(6-methoxypyridin-3-yl)-1,2,3,4-tetrahydroimidazo[1,2-a:5,4-b′]dipyridine] | 5.00 to 6.00
COc1ccc(-c2ccc3nc4c(n3c2)N(c2cccc(C)c2C)CCC4)cn1 [Example 24, 1-(2,3-Dimethylphenyl)-8-(6-methoxypyridin-3-yl)-1,2,3,4-tetrahydroimidazo [1,2-a:5,4-b′]dipyridine] | 5.00 to 6.00
COc1ccc(-c2ccc3nc4c(n3c2)N(c2cc(F)ccc2C)CCC4)cn1 [Example 25, 1-(5-Fluoro-2-methylphenyl)-8-(6-methoxypyridin-3-yl)-1,2,3,4-tetrahydroimidazo [1,2-a:5,4-b′]dipyridine] | > 6.00
COc1ccc(-c2ccc3nc4c(n3c2)N(c2ccc(F)cc2C)CCC4)cn1 [Example 26, 1-(4-Fluoro-2-methylphenyl)-8-(6-methoxypyridin-3-yl)-1,2,3,4-tetrahydroimidazo [1,2-a:5,4-b′]dipyridine] | > 6.00
COc1ccc(-c2ccc3nc4c(n3c2)N(c2ccc(C)cc2C)CCC4)cn1 [Example 30, 1-(2,4-Dimethylphenyl)-8-(6-methoxypyridin-3-yl)-1,2,3,4-tetrahydroimidazo[1,2-a:5,4-b′]dipyridine] | 5.00 to 6.00
COc1ccc(-c2ccc3nc4c(n3c2)N(c2ccccc2Cl)CCC4)cn1 [Example 31, 1-(2-Chlorophenyl)-8-(6-methoxypyridin-3-yl)-1,2,3,4-tetrahydroimidazo[1,2-a:5,4-b′]dipyridine] | > 6.00
COc1ccc(-c2ccc3nc4c(n3c2)N(c2cc(Cl)ccc2C)CCC4)cn1 [Example 32, 1-(5-Chloro-2-methylphenyl)-8-(6-methoxypyridin-3-yl)-1,2,3,4-tetrahydroimidazo[1,2-a:5,4-b′]dipyridine] | > 6.00
CC(C)(O)c1ncc(-c2ccc3nc4c(n3c2)N(c2ccccc2OC(F)F)CCC4)cn1 [Example 34, 2-(5-(1-(2-(Difluoromethoxy)phenyl)-1,2,3,4-tetrahydroimidazo[1,2-a:5,4-b′]dipyridin-8-yl)pyrimidin-2-yl)propan-2-ol] | > 6.00
CC(C)(O)c1ccc(-c2ccc3nc4c(n3c2)N(c2ccccc2OC(F)F)CCC4)cc1 [Example 35, 2-(4-(1-(2-(Difluoromethoxy)phenyl)-1,2,3,4-tetrahydroimidazo[1,2-a:5,4-b′]dipyridin-8-yl)phenyl)propan-2-ol] | > 6.00

Results, then the molecule that gave them:

pIC50 | SMILES
5.00 to 6.00 | COc1ccc(-c2cn3c4c(nc3cc2C)CCCN4c2cc(C)ccc2C)cn1 [Example 1, 1-(2,5-Dimethylphenyl)-8-(6-methoxypyridin-3-yl)-7-methyl-1,2,3,4-tetrahydroimidazo [1,2-a:5,4-b′]dipyridine]
> 6.00 | COc1ccc(-c2cn3c4c(nc3cc2C)CCCN4c2ccccc2OC(F)F)cn1 [Example 2, 1-(2-(Difluoromethoxy)phenyl)-8-(6-methoxypyridin-3-yl)-7-methyl-1,2,3,4-tetrahydroimidazo[1,2-a:5,4-b′]dipyridine]
> 6.00 | Cc1ccc(C)c(N2CCCc3nc4cc(C)c(-c5cnn(C)c5)cn4c32)c1 [Example 3, 1-(2,5-Dimethylphenyl)-7-methyl-8-(1-methyl-1H-pyrazol-4-yl)-1,2,3,4-tetrahydroimidazo[1,2-a:5,4-b′]dipyridine]
> 6.00 | COc1ccc(-c2ccc3nc4c(n3c2)N(c2cc(C)ccc2OC)CCC4)cn1 [Example 7, 1-(2-Methoxy-5-methylphenyl)-8-(6-methoxypyridin-3-yl)-1,2,3,4-tetrahydroimidazo [1,2-a:5,4-b′]dipyridine]
5.00 to 6.00 | COc1ccc(-c2ccc3nc4c(n3c2)N(c2nccc3ccccc23)CCC4)cn1 [Example 8, 1-(Isoquinolin-1-yl)-8-(6-methoxypyridin-3-yl)-1,2,3,4-tetrahydroimidazo [1,2-a:5,4-b′]dipyridine]
> 6.00 | COc1ccc(-c2ccc3nc4c(n3c2)N(c2ccccc2C)CCC4)cn1 [Example 9, 8-(6-Methoxypyridin-3-yl)-1-(o-tolyl)-1,2,3,4-tetrahydroimidazo[1,2-a:5,4-b′]dipyridine]
> 6.00 | FC(F)Oc1ccccc1N1CCCc2nc3ccc(-c4cnc(N5CCOCC5)nc4)cn3c21 [Example 15, 4-(5-(1-(2-(Difluoromethoxy)phenyl)-1,2,3,4-tetrahydroimidazo[1,2-a:5,4-b′]dipyridin-8-yl)pyrimidin-2-yl)morpholine]
> 6.00 | Cc1ccc(C)c(N2CCCc3nc4ccc(-c5ccc(-c6nnc(C)o6)cc5)cn4c32)c1 [Example 16, 2-(4-(1-(2,5-Dimethylphenyl)-1,2,3,4-tetrahydroimidazo[1,2-a:5,4-b′]dipyridin-8-yl)phenyl)-5-methyl-1,3,4-oxadiazole]
> 6.00 | Cc1nnc(-c2ccc(-c3ccc4nc5c(n4c3)N(c3ccccc3OC(F)F)CCC5)cc2)o1 [Example 17, 2-(4-(1-(2-(Difluoromethoxy)phenyl)-1,2,3,4-tetrahydroimidazo[1,2-a:5,4-b′]dipyridin-8-yl)phenyl)-5-methyl-1,3,4-oxadiazole]
> 6.00 | Cc1ccc(C)c(N2CCCc3nc4ccc(-c5cnc(C(C)(C)O)nc5)cn4c32)c1 [Example 18, 2-(5-(1-(2,5-Dimethylphenyl)-1,2,3,4-tetrahydroimidazo[1,2-a:5,4-b′]dipyridin-8-yl)pyrimidin-2-yl)propan-2-ol]
> 6.00 | Cc1ccc(OC(F)F)c(N2CCCc3nc4ccc(-c5cnc(N6CCOCC6)nc5)cn4c32)c1 [Example 19, 4-(5-(1-(2-(Difluoromethoxy)-5-methylphenyl)-1,2,3,4-tetrahydroimidazo [1,2-a:5,4-b′]dipyridin-8-yl)pyrimidin-2-yl)morpholine]
> 6.00 | CC(C)(O)c1ncc(-c2cn3c4c(nc3cc2Cl)CCCN4c2ccccc2)cn1 [Example 21, 2-(5-(7-Chloro-1-phenyl-1,2,3,4-tetrahydroimidazo[1,2-a:5,4-b′]dipyridin-8-yl)pyrimidin-2-yl)propan-2-ol]
> 6.00 | CCc1ccccc1N1CCCc2nc3ccc(-c4ccc(OC)nc4)cn3c21 [Example 28, 1-(2-Ethylphenyl)-8-(6-methoxypyridin-3-yl)-1,2,3,4-tetrahydroimidazo [1,2-a:5,4-b′]dipyridine]
